Results from patent publication US8232288B2, “Substituted benzimidazoles, benzothiazoles and benzoxazoles” (Gruenenthal GmbH, priority 2009, dated 2012).
Where a name gives a salt, the structure may show the parent alone.

Tests used:
[1] = biological target: T1, B1R receptor of the rat (rB1R) (Rattus norvegicus, UniProt P97583); assay: Functional investigation on the bradykinin receptor 1 (B1R), FLIPR Ca2+ assay, rB1R cells; format: cell-based
T1 construct: expressed in transfected cells; host or cells: CHO K1 cells
T1 sequence (P97583 1-337): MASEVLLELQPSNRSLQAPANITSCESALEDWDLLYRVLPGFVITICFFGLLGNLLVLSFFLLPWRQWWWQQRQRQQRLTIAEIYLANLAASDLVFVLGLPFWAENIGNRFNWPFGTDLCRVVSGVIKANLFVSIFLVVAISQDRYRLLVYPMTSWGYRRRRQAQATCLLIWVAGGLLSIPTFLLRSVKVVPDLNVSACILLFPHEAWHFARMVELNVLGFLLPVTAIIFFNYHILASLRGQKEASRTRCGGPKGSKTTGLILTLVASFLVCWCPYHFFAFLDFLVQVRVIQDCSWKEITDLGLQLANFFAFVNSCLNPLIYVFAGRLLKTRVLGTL
Description: (§1) The agonistic or antagonistic action of substances can be quantified on the bradykinin receptor 1 (B1R) of the human and rat species with ectopically expressing cell lines (CHO K1 cells) and with the aid of a Ca^2+-sensitive dyestuff (Fluo-4) in a fluorescent imaging plate reader (FLIPR). The figure in % activation is based on the Ca^2+ signal after addition of Lys-Des-Arg^9-bradykinin (0.5 nM) or Des-Arg^9-bradykinin (100 nM). Antagonists lead to a suppression of the Ca^2+ inflow after addition of the agonist. % inhibition compared with the maximum achievable inhibition is stated.
(§2) The agonistic or antagonistic action of substances can be determined on the bradykinin receptor 1 (B1R) of the human and rat species with the following assay. In accordance with this assay, the Ca^2+ inflow through the channel is quantified with the aid of a Ca^2+-sensitive dyestuff (type Fluo-4, Molecular Probes Europe BV, Leiden Holland) in a fluorescent imaging plate reader (FLIPR, Molecular Devices, Sunnyvale, USA).
(§3) Chinese hamster ovary cells (CHO K1 cells) transfected stably with the human B1R gene (hB1R cells) or the B1R gene of the rat (rB1R cells) are used. For functional studies, these cells are plated out on black 96-well plates with a clear base (BD Biosciences, Heidelberg, Germany or Greiner, Frickenhausen, Germany) in a density of 20,000-35,000 cells/well. The cells are left overnight at 37° C. and 5% CO2 in culture medium (hB1R cells: Nutrient Mixture Ham's F12, Gibco Invitrogen GmbH, Karlsruhe, Germany or DMEM, Sigma-Aldrich, Taufkirchen, Germany; rB1R cells: D-MEM/F12, Gibco Invitrogen GmbH, Karlsruhe, Germany) with 10 vol. % FBS (foetal bovine serum, Gibco Invitrogen GmbH, Karlsruhe, Germany or PAN Biotech GmbH, Aidenbach, Germany). On the following day, the cells are loaded for 60 min at 37° C. with 2.13 μM Fluo-4 (Molecular Probes Europe BV, Leiden Holland) in HBSS buffer (Hank's buffered saline solution, Gibco Invitrogen GmbH, Karlsruhe, Germany) with 2.5 mM probenecid (Sigma-Aldrich, Taufkirchen, Germany) and 10 mM HEPES (Sigma-Aldrich, Taufkirchen, Germany). The plates are then washed 2× with HBSS buffer, and HBSS buffer which additionally contains 0.1% BSA (bovine serum albumin; Sigma-Aldrich, Taufkirchen, Germany), 5.6 mM glucose and 0.05% gelatine (Merck KGaA, Darmstadt, Germany) is added. After a further incubation of 20 minutes at room temperature, the plates are inserted into the FLIPR for the Ca^2+ measurement.
(§4) Alternatively, the plates are washed with buffer A (15 mM HEPES, 80 mM NaCl, 5 mM KCl, 1.2 mM CaCl2, 0.7 mM MgSO4, 2 g/l glucose, 2.5 mM probenecid), buffer A is added and the plates are loaded with 2.5 μM Fluo-4 and 0.025% Pluronic F127 (Sigma-Aldrich, Taufkirchen, Germany). Thereafter, the cells are washed 2× with buffer A and incubated for 30 minutes at room temperature with buffer A, which additionally contains 0.05% BSA and 0.05% gelatine, and thereafter inserted into the FLIPR for the Ca^2+ measurement.
(§5) The Ca^2+-dependent fluorescence is measured here before and after addition of substances (λex=488 nm, λem=540 nm). Quantification is by measurement of the highest fluorescence intensity (FC, fluorescence counts) over time.
(§6) The FLIPR protocol consists of 2 additions of substance. Test substances (10 μM) are first pipetted on to the cells and the Ca^2+ inflow is compared with the control (hB1R: Lys-Des-Arg^9-bradykinin>=50 nM; rB1R: Des-Arg^9-bradykinin 10 μM). This gives the result in % activation based on the Ca^2+ signal after addition of Lys-Des-Arg^9-bradykinin (>=50 nM) or Des-Arg^9-bradykinin (10 μM). After incubation for 10-20 minutes, Lys-Des-Arg^9-bradykinin (hB1R) or Des-Arg^9-bradykinin (rB1R) in the concentration of the EC80 is applied and the inflow of Ca^2+ is likewise determined. Antagonists lead to a suppression of the Ca^2+ inflow. % inhibition compared with the maximum achievable inhibition is calculated.
(§7) In order to determine the IC50 value, the substances are added in various concentrations. […]

[2] = biological target: T2, human B1R receptor (hB1R) (Homo sapiens, UniProt P46663); assay: Functional investigation on the bradykinin receptor 1 (B1R), FLIPR Ca2+ assay, hB1R cells; format: cell-based
T2 construct: expressed in transfected cells; host or cells: CHO K1 cells
T2 sequence (P46663 1-353): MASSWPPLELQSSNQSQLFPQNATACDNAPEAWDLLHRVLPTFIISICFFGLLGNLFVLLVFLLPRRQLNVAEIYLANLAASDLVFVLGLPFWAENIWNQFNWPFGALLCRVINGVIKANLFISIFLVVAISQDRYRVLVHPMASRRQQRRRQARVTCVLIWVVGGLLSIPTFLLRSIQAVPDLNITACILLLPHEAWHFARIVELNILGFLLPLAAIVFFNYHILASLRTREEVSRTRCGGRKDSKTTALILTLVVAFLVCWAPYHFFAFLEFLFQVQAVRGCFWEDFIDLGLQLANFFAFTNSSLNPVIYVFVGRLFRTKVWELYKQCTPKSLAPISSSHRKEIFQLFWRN
Description: as §1, §2, §3, §4, §5, §6, §7

inhibition at 10 µM [1] [%] | inhibition at 10 µM [2] [%] | SMILES
76 | 100 | COc1cc(C)c(S(=O)(=O)N2CCCC2c2nc3cccc(C(=O)N4CCC5(CC4)CCN(c4ccncc4)CC5)c3[nH]2)c(C)c1 (stereo not drawn) [I_19, [2-[1-[(4-methoxy-2,6-dimethyl-phenyl)sulfonyl]-pyrrolidin-2-yl]-3H-benzoimidazol-4-yl]-(9-pyridin-4-yl-3,9-diazaspiro[5.5]undecan-3-yl)-methanone]
99 | 99 | CN(Cc1nc2cccc(C(=O)N3CCC4(CC3)CCN(c3ccncc3)CC4)c2[nH]1)S(=O)(=O)c1ccc(OC(F)(F)F)cc1Cl [I_11, 2-chloro-N-methyl-N-[[7-(9-pyridin-4-yl-3,9-diazaspiro[5.5]undecane-3-carbonyl)-1H-benzoimidazol-2-yl]-methyl]-4-(trifluoromethyloxy)-benzenesulfonic acid amide hydrochloride]
103 | 100 | COc1cc(C)c(S(=O)(=O)N(C)Cc2nc3ccc(C(=O)N4CCC5(CC4)CCN(c4ccncc4)CC5)cc3[nH]2)c(C)c1 [I_22, 4-methoxy-N,2,6-trimethyl-N-[[6-(9-pyridin-4-yl-3,9-diazaspiro[5.5]undecane-3-carbonyl)-1H-benzoimidazol-2-yl]-methyl]-benzenesulfonic acid amide]
48 | 39 | COc1cc(C)c(S(=O)(=O)N(C)c2nc3ccc(C(=O)N4CCC5(CC4)CCN(c4ccncc4)C5)cc3n2C)c(C)c1 [I_CC-18, 4-methoxy-N,2,6-trimethyl-N-[1-methyl-6-(3-pyridin-4-yl-3,8-diazaspiro[4.5]decane-8-carbonyl)-1H-benzoimidazol-2-yl]-benzenesulfonic acid amide]
87 | 72 | COc1cc(C)c(S(=O)(=O)N(C)C(C)c2nc3cccc(C(=O)N4CCC5(CCN(C(=O)c6ccc(C#N)cc6)CC5)CC4)c3[nH]2)c(C)c1 (stereo not drawn) [I_CC-49, N-[1-[7-[9-(4-Cyano-benzoyl)-3,9-diazaspiro[5.5]undecane-3-carbonyl]-1H-benzoimidazol-2-yl]-ethyl]-4-methoxy-N,2,6-trimethyl-benzenesulfonic acid amide]
93 | 98 | COc1cc(C)c(S(=O)(=O)N(C)Cc2nc3ccc(F)c(C(=O)N4CCC5(CC4)CCN(c4ccncc4)CC5)c3[nH]2)c(C)c1 [I_13, N-[[6-fluoro-7-(9-pyridin-4-yl-3,9-diazaspiro[5.5]undecane-3-carbonyl)-1H-benzoimidazol-2-yl]-methyl]-4-methoxy-N,2,6-trimethyl-benzenesulfonic acid amide]
100 | 82 | COc1cc(C)c(S(=O)(=O)N(C)C(C)c2nc3cccc(C(=O)N4CCC5(CCN(Cc6cncn6C)CC5)CC4)c3[nH]2)c(C)c1 (stereo not drawn) [I_CC-36, 4-Methoxy-N,2,6-trimethyl-N-[1-[7-[9-[(3-methyl-3H-imidazol-4-yl)-methyl]-3,9-diazaspiro[5.5]undecane-3-carbonyl]-1H-benzoimidazol-2-yl]-ethyl]-benzenesulfonic acid amide]
101 | 100 | O=C1c2c(Cl)cccc2CN1Cc1nc2cccc(C(=O)N3CCC4(CC3)CCN(c3ccncc3)CC4)c2[nH]1 [I_CC-12, 7-chloro-2-[[7-(3-pyridin-4-yl-3,9-diazaspiro[5.5]undecane-9-carbonyl)-1H-benzoimidazol-2-yl]-methyl]-2,3-dihydro-isoindol-1-one]
92 | 63 | COc1cc(C)c(S(=O)(=O)N(C)C(C)c2nc3cccc(C(=O)N4CCC5(CC4)CCN(C(=O)c4cc(C(C)(C)C)nn4C)CC5)c3[nH]2)c(C)c1 (stereo not drawn) [I_CC-54, N-[1-[7-[9-(5-tert-Butyl-2-methyl-2H-pyrazole-3-carbonyl)-3,9-diazaspiro[5.5]undecane-3-carbonyl]-1H-benzoimidazol-2-yl]-ethyl]-4-methoxy-N,2,6-trimethyl-benzenesulfonic acid amide]
56 | 71 | COc1cc(C)c(S(=O)(=O)N(C)c2nc3ccc(C(=O)N4CCC5(CC4)CCN(c4ccncc4)CC5)cc3n2C)c(C)c1 [I_CC-17, 4-methoxy-N,2,6-trimethyl-N-[1-methyl-6-(3-pyridin-4-yl-3,9-diazaspiro[5.5]undecane-9-carbonyl)-1H-benzoimidazol-2-yl]-benzenesulfonic acid amide]
58 | 15 | CN(Cc1nc2cccc(C(=O)N3CCC4(CC3)CCN(c3ccncc3)C4)c2[nH]1)C(=O)c1sccc1Cl [I_CC-09, 3-chloro-N-methyl-N-[[7-(3-pyridin-4-yl-3,8-diazaspiro[4.5]decane-8-carbonyl)-1H-benzoimidazol-2-yl]-methyl]-thiophene-2-carboxylic acid amide]
93 | 77 | COc1cc(C)c(S(=O)(=O)N(C)C(C)c2nc3cccc(C(=O)N4CCC5(CCN(C(=O)c6ccc(F)cc6Cl)CC5)CC4)c3[nH]2)c(C)c1 (stereo not drawn) [I_CC-52, N-[1-[7-[9-(2-Chloro-4-fluoro-benzoyl)-3,9-diazaspiro[5.5]undecane-3-carbonyl]-1H-benzoimidazol-2-yl]-ethyl]-4-methoxy-N,2,6-trimethyl-benzenesulfonic acid amide]
94 | 84 | COc1cc(C)c(S(=O)(=O)N(C)C(C)c2nc3cccc(C(=O)N4CCC5(CCN(Cc6c(F)cccc6F)CC5)CC4)c3[nH]2)c(C)c1 (stereo not drawn) [I_CC-29, N-[1-[7-[9-[(2,6-Difluoro-phenyl)-methyl]-3,9-diazaspiro[5.5]undecane-3-carbonyl]-1H-benzoimidazol-2-yl]-ethyl]-4-methoxy-N,2,6-trimethyl-benzenesulfonic acid amide]

SMILES | inhibition at 10 µM [1] [%] | inhibition at 10 µM [2] [%]
COc1cc(C)c(S(=O)(=O)N(C)C(C)c2nc3cccc(C(=O)N4CCC5(CC4)CCN(S(=O)(=O)c4cccc6c4ccn6C)CC5)c3[nH]2)c(C)c1 (stereo not drawn) [I_CC-60, 4-Methoxy-N,2,6-trimethyl-N-[1-[7-[9-[(1-methyl-1H-indol-4-yl)sulfonyl]-3,9-diazaspiro[5.5]undecane-3-carbonyl]-1H-benzoimidazol-2-yl]-ethyl]-benzenesulfonic acid amide] | 101 | 
